Measured values: patent US10746739B2, “Identification of novel diagnostics and therapeutics by modulating RhoH” (Leukemia Therapeutics, LLC, priority 2015, dated 2020)

Tested on: pre-existing HCL tumors (JOK-Luc)
Test: Intraperitoneal JOK-Luc HCL xenograft treated with antibody, luminescence imaging
Format: in vivo
Settings: JOK-Luc injected into peritoneum of Hsd:Athymic Nude-Foxn1nu mice; antibody intraperitoneally at day 4 and day 6; imaged at day 7; compared with control IgG antibody
Method: JOK-1 cells were stably transfected with the plasmid pGL4.5[Luc2/CMV/Neo] that contains the firefly luciferase gene under control of the constitutive gene promoter of cytomegalovirus. This luciferase cell line was then injected into the peritoneum of mice of the strain Hsd:Athymic Nude-Foxn1^nu. After 3 days, mice were subjected to whole body imaging following intravenous injection of D-Luciferin. Those mice where tumor was detected were intraperitoneally injected at day 4 and day 6 with the anti-CD38 antibody SAR650984 or an IgG control antibody. At day 7, mice were again imaged. Depicted are superimposed luminescence and X-ray images of three mice injected with SAR650984 (CD38) and three injected with the control antibody (Ctrl).
Experiments performed with JOK-CD38-KO indicate that targeting CD38 expression in HCL may have therapeutic efficacy. This was tested using the parent of JOK-CD38-KO where CD38 expression remained intact. The parental line was engineered such that it constitutively produced luciferase and, therefore, could be visualized by luminescence in the presence of luciferin. […]
The role of CD38 in HCL was assessed using 5×10^6 of the cell line pools JOK-CD38-WT or JOK-CD38-KO injected subcutaneously into male or female mice that were 6-8 weeks old and of the strain NOD.Cg-Prkdc^scid IL2rγ^tm1Wj1/SzJ (Jackson Laboratory, Bar Harbor, Me., USA). […]

Substance: SAR650984: humanized anti-CD38 antibody SAR650984 (Sanofi Oncology)
- effect on pre-existing HCL tumors by luminescence imaging: tended to be reduced
